Measured values from patent US20230340011A1 (Asteroid Therapeutics, priority 2022, published 2023).

Assays:
LXRβ = LXRβ (Homo sapiens (Human), UniProt P55055); assay: In vitro assay LXRβ: PathHunter NHR CHO cells, LXRβ / Steroid Receptor Co-activator Peptide enzyme fragment complementation; type: cell-based; details: PathHunter NHR CHO cells, full-length human LXRβ and SRCP, chemiluminescent signal; read-out: LXRβ PPI
In short: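 Co-activator recruitment measured by chemiluminescence after signal generation. The CHO line carries full-length human LXRβ tagged with ProLink and an SRCP–enzyme acceptor fusion in the nucleus; cells sat overnight at 37° C before testing, in charcoal-dextran filtered serum medium with 1% final vehicle.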

SREBP-2 = SREBP-2 (Homo sapiens (Human), UniProt Q12772); assay: In vitro assay SREBP-2: PathHunter U2OS SREBP-2 Nuclear Translocation Cell Line, U18666A-stimulated; type: cell-based; details: PathHunter U2OS SREBP-2 nuclear translocation cells, U18666A 10 μM, overnight (16 hours)

Sequence of LXRβ (P55055 whole entry, the tested form may be a part): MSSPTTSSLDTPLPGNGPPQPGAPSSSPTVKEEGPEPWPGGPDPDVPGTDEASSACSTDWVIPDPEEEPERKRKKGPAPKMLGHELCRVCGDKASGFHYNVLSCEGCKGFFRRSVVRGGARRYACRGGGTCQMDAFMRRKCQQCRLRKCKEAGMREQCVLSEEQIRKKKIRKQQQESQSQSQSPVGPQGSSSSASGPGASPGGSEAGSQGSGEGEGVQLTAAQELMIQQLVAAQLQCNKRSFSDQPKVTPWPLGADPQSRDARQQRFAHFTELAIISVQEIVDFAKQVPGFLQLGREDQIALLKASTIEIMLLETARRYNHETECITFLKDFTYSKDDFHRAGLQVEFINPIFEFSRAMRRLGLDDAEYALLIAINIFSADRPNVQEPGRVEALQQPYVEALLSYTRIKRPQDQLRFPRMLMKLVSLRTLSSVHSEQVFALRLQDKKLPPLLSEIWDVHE

| SMILES | EC50 (LXRβ) [µM] | IC50 (SREBP-2) [µM] |
| --- | --- | --- |
| C[C@H](CCC(=O)N1CCN(c2ccncc2)C[C@@H]1C)[C@H]1CC[C@H]2[C@@H]3CC=C4C[C@@H](O)CC[C@]4(C)[C@H]3CC[C@]12C [Example 580, (R)-4-((3S,8S,9S,10R,13R,14S,17R)-3-hydroxy-10,13-dimethyl-2,3,4,7,8,9,10,11,12,13,14,15,16,17-tetradecahydro-1H-cyclopenta[a]phenanthren-17-yl)-1-((S)-2-methyl-4-(pyridin-4-yl)piperazin-1-yl)pentan-1-one] | > 10 | < 0.25 |
| Cc1cnc(CC[C@@H](C)[C@H]2CC[C@H]3[C@@H]4CC=C5C[C@@H](O)CC[C@]5(C)[C@H]4CC[C@]23C)nc1 [Example 192, (3S,8S,9S,10R,13R,14S,17R)-10,13-dimethyl-17-((R)-4-(5-methylpyrimidin-2-yl)butan-2-yl)-2,3,4,7,8,9,10,11,12,13,14,15,16,17-tetradecahydro-1H-cyclopenta[a]phenanthren-3-ol] | > 10 | < 0.25 |
| CC(=O)NC1(C)CCN(C(=O)CC[C@@H](C)[C@H]2CC[C@H]3[C@@H]4CC=C5C[C@@H](O)CC[C@]5(C)[C@H]4CC[C@]23C)CC1 [Example 83, N-(1-((R)-4-((3S,8S,9S,10R,13R,14S,17R)-3-hydroxy-10,13-dimethyl-2,3,4,7,8,9,10,11,12,13,14,15,16,17-tetradecahydro-1H-cyclopenta[a]phenanthren-17-yl)pentanoyl)-4-methylpiperidin-4-yl)acetamide] | > 10 | 0.25 to 1 |
| C[C@H](CCc1cscn1)[C@H]1CC[C@H]2[C@@H]3CC=C4C[C@@H](O)CC[C@]4(C)[C@H]3CC[C@]12C [Example 175, (1R,3aS,3bS,7S,9aR,9bS,11aR)-9a,11a-dimethyl-1-[(2R)-4-(1,3-thiazol-4-yl)butan-2-yl]-1H,2H,3H,3aH,3bH,4H,6H,7H,8H,9H,9aH,9bH,10H,11H,11aH-cyclopenta[a]phenanthren-7-ol] | 1 to 10 | < 0.25 |
| C[C@H](CCC(=O)N1CC2(C1)CC(C)(O)C2)[C@H]1CC[C@H]2[C@@H]3CC=C4C[C@@H](O)CC[C@]4(C)[C@H]3CC[C@]12C [Example 101, (R)-4-((3S,8S,9S,10R,13R,14S,17R)-3-hydroxy-10,13-dimethyl-2,3,4,7,8,9,10,11,12,13,14,15,16,17-tetradecahydro-1H-cyclopenta[a]phenanthren-17-yl)-1-(6-hydroxy-6-methyl-2-azaspiro[3.3]heptan-2-yl)pentan-1-one] | > 10 | < 0.25 |
| C[C@H](CCC(=O)N(C)C1CCN(C(=O)N(C)C)CC1)[C@H]1CC[C@H]2[C@@H]3CC=C4C[C@@H](O)CC[C@]4(C)[C@H]3CC[C@]12C [Example 644, 4-((R)-4-((3S,8S,9S,10R,13R,14S,17R)-3-hydroxy-10,13-dimethyl-2,3,4,7,8,9,10,11,12,13,14,15,16,17-tetradecahydro-1H-cyclopenta[a]phenanthren-17-yl)-N-methylpentanamido)-N,N-dimethylpiperidine-1-carboxamide] | > 10 | < 0.25 |
| CC[C@]1(O)CC[C@@]2(C)C(=CC[C@H]3[C@@H]4CC[C@H]([C@H](C)CCC(=O)N5CCN(C(=O)OC)CC5)[C@@]4(C)CC[C@@H]32)C1 [Example 284, methyl 4-[(4R)-4-[(1R,3aS,3bS,7S,9aR,9bS,11aR)-7-ethyl-7-hydroxy-9a,11a-dimethyl-1H,2H,3H,3aH,3bH,4H,6H,7H,8H,9H,9aH,9bH,10H,11H,11aH-cyclopenta[a]phenanthren-1-yl]pentanoyl]piperazine-1-carboxylate] | > 10 | 1 to 10 |
| C[C@H](CCC(=O)N1CCN(C(=O)N2CCC2)CC1)[C@H]1CC[C@H]2[C@@H]3CC=C4C[C@@H](O)CC[C@]4(C)[C@H]3CC[C@]12C [Example 208, (R)-1-(4-(azetidine-1-carbonyl)piperazin-1-yl)-4-((3S,8S,9S,10R,13R,14S,17R)-3-hydroxy-10,13-dimethyl-2,3,4,7,8,9,10,11,12,13,14,15,16,17-tetradecahydro-1H-cyclopenta[a]phenanthren-17-yl)pentan-1-one] | > 10 | < 0.25 |
| COC(=O)N1CCC2(CCN(C(=O)CC[C@@H](C)[C@H]3CC[C@H]4[C@@H]5CC=C6C[C@@H](O)CC[C@]6(C)[C@H]5CC[C@]34C)C2)C1 (stereo partly drawn) [Example 554, Methyl 7-((R)-4-((3S,8S,9S,10R,13R,14S,17R)-3-hydroxy-10,13-dimethyl-2,3,4,7,8,9,10,11,12,13,14,15,16,17-tetradecahydro-1H-cyclopenta[a]phenanthren-17-yl)pentanoyl)-2,7-diazaspiro[4.4]nonane-2-carboxylate] | > 10 | < 0.25 |
| C[C@H](CCC(=O)N1CCC(F)(F)CC1)[C@H]1CC[C@H]2[C@@H]3CC=C4C[C@@H](O)CC[C@]4(C)[C@H]3CC[C@]12C [Example 79, (R)-1-(4,4-difluoropiperidin-1-yl)-4-((3S,8S,9S,10R,13R,14S,17R)-3-hydroxy-10,13-dimethyl-2,3,4,7,8,9,10,11,12,13,14,15,16,17-tetradecahydro-1H-cyclopenta[a]phenanthren-17-yl) pentan-1-one] | 1 to 10 | < 0.25 |
| CON(C(=O)CC[C@@H](C)[C@H]1CC[C@H]2[C@@H]3CC=C4C[C@@H](O)CC[C@]4(C)[C@H]3CC[C@]12C)[C@H](C)CO [Example 71, (R)-4-((3S,8S,9S,10R,13R,14S,17R)-3-hydroxy-10,13-dimethyl-2,3,4,7,8,9,10,11,12,13,14,15,16,17-tetradecahydro-1H-cyclopenta[a]phenanthren-17-yl)-N—((R)-1-hydroxypropan-2-yl)-N-methoxypentanamide] | 0.25 to 1 | 0.25 to 1 |
| Cc1cc(N2CCN(C(=O)CC[C@@H](C)[C@H]3CC[C@H]4[C@@H]5CC=C6C[C@@H](O)CC[C@]6(C)[C@H]5CC[C@]34C)CC2)sn1 [Example 497, (R)-4-((3S,8S,9S,10R,13R,14S,17R)-3-hydroxy-10,13-dimethyl-2,3,4,7,8,9,10,11,12,13,14,15,16,17-tetradecahydro-1H-cyclopenta[a]phenanthren-17-yl)-1-(4-(3-methylisothiazol-5-yl)piperazin-1-yl)pentan-1-one] | > 10 | < 0.25 |
| C[C@H](CCC(=O)N1CC[C@@H](Oc2ccncc2)[C@@H](C)C1)[C@H]1CC[C@H]2[C@@H]3CC=C4C[C@@H](O)CC[C@]4(C)[C@H]3CC[C@]12C [Example 572, (R)-4-((3S,8S,9S,10R,13R,14S,17R)-3-hydroxy-10,13-dimethyl-2,3,4,7,8,9,10,11,12,13,14,15,16,17-tetradecahydro-1H-cyclopenta[a]phenanthren-17-yl)-1-((3S,4R)-3-methyl-4-(pyridin-4-yloxy)piperidin-1-yl)pentan-1-one] | > 10 | < 0.25 |
| C[C@H](CCC(=O)N1CCC[C@@](C)(O)C1)[C@H]1CC[C@H]2[C@@H]3CC=C4C[C@@H](O)CC[C@]4(C)[C@H]3CC[C@]12C [Example 105, (R)-4-((3S,8S,9S,10R,13R,14S,17R)-3-hydroxy-10,13-dimethyl-2,3,4,7,8,9,10,11,12,13,14,15,16,17-tetradecahydro-1H-cyclopenta[a]phenanthren-17-yl)-1-((R)-3-hydroxy-3-methylpiperidin-1-yl) pentan-1-one] | 1 to 10 | < 0.25 |
| C[C@H](CCC(=O)N1CCN(S(=O)(=O)N(C)C)CC1)[C@H]1CC[C@H]2[C@@H]3CC=C4C[C@@H](O)CC[C@]4(C)[C@H]3CC[C@]12C [Example 358, 4-((R)-4-((3S,8S,9S,10R,13R,14S,17R)-3-hydroxy-10,13-dimethyl-2,3,4,7,8,9,10,11,12,13,14,15,16,17-tetradecahydro-1H-cyclopenta[a]phenanthren-17-yl)pentanoyl)-N,N-dimethylpiperazine-1-sulfonamide] | > 10 | < 0.25 |
| C[C@H](CCC(=O)N1CCN(C(=O)N(C)C)[C@@H](C)C1)[C@H]1CC[C@H]2[C@@H]3CC=C4C[C@@H](O)CC[C@]4(C)[C@H]3CC[C@]12C [Example 573, (2S)-4-[(4R)-4-[(1R,3aS,3bS,7S,9aR,9bS,11aR)-7-hydroxy-9a,11a-dimethyl-1H,2H,3H,3aH,3bH,4H,6H,7H,8H,9H,9aH,9bH,10H,11H,11aH-cyclopenta[a]phenanthren-1-yl]pentanoyl]-N,N,2-trimethylpiperazine-1-carboxamide] | > 10 | < 0.25 |
| C[C@H](CCc1cnsc1)[C@H]1CC[C@H]2[C@@H]3CC=C4C[C@@H](O)CC[C@]4(C)[C@H]3CC[C@]12C [Example 176, (3S,8S,9S,10R,13R,14S,17R)-17-((R)-4-(isothiazol-4-yl)butan-2-yl)-10,13-dimethyl-2,3,4,7,8,9,10,11,12,13,14,15,16,17-tetradecahydro-1H-cyclopenta[a]phenanthren-3-ol] | > 10 | 0.25 to 1 |
| CC(C)OC(=O)N1CCN(C(=O)CC[C@@H](C)[C@H]2CC[C@H]3[C@@H]4CC=C5C[C@@H](O)CC[C@]5(C)[C@H]4CC[C@]23C)C[C@@H]1C [Example 576, isopropyl(S)-4-((R)-4-((3S,8S,9S,10R,13R,14S,17R)-3-hydroxy-10,13-dimethyl-2,3,4,7,8,9,10,11,12,13,14,15,16,17-tetradecahydro-1H-cyclopenta[a]phenanthren-17-yl)pentanoyl)-2-methylpiperazine-1-carboxylate] | > 10 | < 0.25 |
